Reference: PubChem BioAssay AID720673 (NMMLSC, 2013)
Calls of active or inactive are those of the source. How the calls were made is not given here.

Target: Botulinum neurotoxin type A light chain (Clostridium botulinum A ATCC 3502)
Assay: BoNT/A light chain protease inhibitors, dose response, biochemical, powder set 03 (AID 720673)
Settings: BoNT/A LC protease, multiplex microsphere substrate cleavage assay

Compound	EC50
CCNC(=O)Nc1ccc2nc(-c3cccs3)c(-c3cccs3)nc2c1	14.3 µM
CC(C)(C)NC(=O)Nc1ccc2nc(-c3ccccc3)c(-c3ccccc3)nc2c1	> 20 µM (inactive)
COc1ccc(-c2cn3nc(-c4ccccc4)c(-c4ccccc4)nc3n2)c(OC)c1	13.2 µM
Cc1ccc(-c2nc3nc(-c4ccc(S(C)(=O)=O)cc4)cn3nc2-c2ccc(C)cc2)cc1	7.6 µM
CCCOC(=O)Nc1ccc2nc(-c3ccccc3)c(-c3ccccc3)nc2c1	> 20 µM (inactive)
Cc1ccc(-c2cn3nc(-c4ccc(C)cc4)c(-c4ccc(C)cc4)nc3n2)cc1	4.7 µM
O=C(Nc1ccc2nc(-c3ccccc3)c(-c3ccccc3)nc2c1)C1CCC1	> 20 µM (inactive)
CC(C)NC(=O)Nc1ccc2nc(-c3cccs3)c(-c3cccs3)nc2c1	> 20 µM (inactive)
COc1ccccc1-c1cn2nc(-c3ccc(F)cc3)c(-c3ccc(F)cc3)nc2n1	6.2 µM
N#Cc1ccc(-c2cn3nc(-c4ccc(F)cc4)c(-c4ccc(F)cc4)nc3n2)cc1	> 20 µM (inactive)
COc1ccc(-c2nc3nc(-c4ccccc4)cn3nc2-c2ccc(OC)cc2)cc1	9.2 µM
CCC(=O)Nc1ccc2nc(-c3cccs3)c(-c3cccs3)nc2c1	> 20 µM (inactive)
N#Cc1ccc(-c2cn3nc(-c4ccccc4)c(-c4ccccc4)nc3n2)cc1	> 20 µM (inactive)
Fc1ccc(-c2cn3nc(-c4ccc(F)cc4)c(-c4ccc(F)cc4)nc3n2)cc1	6.7 µM
CC(C)OC(=O)Nc1ccc2nc(-c3cccs3)c(-c3cccs3)nc2c1	> 20 µM (inactive)
O=C(Nc1ccc2nc(-c3cccs3)c(-c3cccs3)nc2c1)C1CC1	> 20 µM (inactive)
Cc1ccc(-c2nc3nc(-c4ccccc4)cn3nc2-c2ccc(C)cc2)cc1	7.4 µM
COc1ccc(-c2nc3nc(-c4cccc(OC)c4)cn3nc2-c2ccc(OC)cc2)cc1	14.7 µM
COc1ccccc1-c1cn2nc(-c3ccccc3)c(-c3ccccc3)nc2n1	10.9 µM
COc1ccc(-c2nc3nc(-c4ccc(C)cc4)cn3nc2-c2ccc(OC)cc2)cc1	> 20 µM (inactive)
COc1ccc(-c2nc3nc(-c4ccccc4OC)cn3nc2-c2ccc(OC)cc2)cc1	8.9 µM

Compound	EC50
O=C(Nc1ccc2nc(-c3cccs3)c(-c3cccs3)nc2c1)C1CCC1	> 20 µM (inactive)
Cc1ccc(-c2cn3nc(-c4ccc(F)cc4)c(-c4ccc(F)cc4)nc3n2)cc1	7.7 µM
CCOC(=O)Nc1ccc2nc(-c3cccs3)c(-c3cccs3)nc2c1	> 20 µM (inactive)
COc1ccc(-c2cn3nc(-c4ccc(F)cc4)c(-c4ccc(F)cc4)nc3n2)c(OC)c1	5.7 µM
O=C(Nc1ccc2nc(-c3cccs3)c(-c3cccs3)nc2c1)OCc1ccccc1	10.6 µM
Cc1ccc(-c2nc3nc(-c4cccc(F)c4)cn3nc2-c2ccc(C)cc2)cc1	5.2 µM
O=C(Nc1ccc2nc(-c3ccccc3)c(-c3ccccc3)nc2c1)OCc1ccccc1	> 20 µM (inactive)
Cc1ccc(-c2nc3nc(-c4ccc(F)cc4)cn3nc2-c2ccc(C)cc2)cc1	7.6 µM
O=C(Nc1ccc2nc(-c3ccccc3)c(-c3ccccc3)nc2c1)C1CCCC1	> 20 µM (inactive)
COc1ccc(-c2cn3nc(-c4ccc(OC)cc4)c(-c4ccc(OC)cc4)nc3n2)cc1	5.7 µM
Fc1cccc(-c2cn3nc(-c4ccccc4)c(-c4ccccc4)nc3n2)c1	> 20 µM (inactive)
O=C(Nc1ccc2nc(-c3ccccc3)c(-c3ccccc3)nc2c1)C1CCCCC1	> 20 µM (inactive)
CCCS(=O)(=O)Nc1ccc2nc(-c3cccs3)c(-c3cccs3)nc2c1	> 20 µM (inactive)
CCNC(=S)Nc1ccc2nc(-c3ccccc3)c(-c3ccccc3)nc2c1	> 20 µM (inactive)
CCNC(=O)Nc1ccc2nc(-c3ccccc3)c(-c3ccccc3)nc2c1	> 20 µM (inactive)
Fc1ccc(-c2nc3nc(-c4ccccc4)cn3nc2-c2ccc(F)cc2)cc1	11.1 µM
CC(=O)Nc1ccc2nc(-c3ccccc3)c(-c3ccccc3)nc2c1	> 20 µM (inactive)
FC(F)(F)Oc1ccc(-c2cn3nc(-c4ccccc4)c(-c4ccccc4)nc3n2)cc1	> 20 µM (inactive)
CCCOC(=O)Nc1ccc2nc(-c3cccs3)c(-c3cccs3)nc2c1	> 20 µM (inactive)
COc1ccc(-c2nc3nc(-c4ccc(OC(F)(F)F)cc4)cn3nc2-c2ccc(OC)cc2)cc1	4.2 µM
COc1ccc(-c2cn3nc(-c4ccc(F)cc4)c(-c4ccc(F)cc4)nc3n2)cc1	7.1 µM

Compound	EC50
Cc1ccc(-c2nc3nc(-c4ccc(OC(F)(F)F)cc4)cn3nc2-c2ccc(C)cc2)cc1	4 µM
COc1ccc(-c2nc3nc(-c4ccc(OC)cc4OC)cn3nc2-c2ccc(OC)cc2)cc1	> 20 µM (inactive)
Fc1ccc(-c2nc3nc(-c4ccc(OC(F)(F)F)cc4)cn3nc2-c2ccc(F)cc2)cc1	15.3 µM
COc1ccc(-c2nc3nc(-c4cccc(F)c4)cn3nc2-c2ccc(OC)cc2)cc1	7 µM
CCC(=O)Nc1ccc2nc(-c3ccccc3)c(-c3ccccc3)nc2c1	> 20 µM (inactive)
COc1ccc(-c2nc3nc(-c4ccc(S(C)(=O)=O)cc4)cn3nc2-c2ccc(OC)cc2)cc1	> 20 µM (inactive)
COc1cccc(-c2cn3nc(-c4ccc(F)cc4)c(-c4ccc(F)cc4)nc3n2)c1	11.1 µM
Cc1ccc(-c2nc3nc(-c4ccc(C#N)cc4)cn3nc2-c2ccc(C)cc2)cc1	4.7 µM
COC(=O)Nc1ccc2nc(-c3cccs3)c(-c3cccs3)nc2c1	> 20 µM (inactive)
CC(C)CS(=O)(=O)Nc1ccc2nc(-c3cccs3)c(-c3cccs3)nc2c1	> 20 µM (inactive)
CCCCOC(=O)Nc1ccc2nc(-c3ccccc3)c(-c3ccccc3)nc2c1	> 20 µM (inactive)
O=C(Nc1ccc2nc(-c3cccs3)c(-c3cccs3)nc2c1)C1CCCC1	> 20 µM (inactive)
O=S(=O)(Nc1ccc2nc(-c3ccccc3)c(-c3ccccc3)nc2c1)C1CC1	> 20 µM (inactive)
COc1ccccc1-c1cn2nc(-c3ccc(C)cc3)c(-c3ccc(C)cc3)nc2n1	12.4 µM
COc1cccc(-c2cn3nc(-c4ccc(C)cc4)c(-c4ccc(C)cc4)nc3n2)c1	6.6 µM
COC(=O)Nc1ccc2nc(-c3ccccc3)c(-c3ccccc3)nc2c1	> 20 µM (inactive)
CCCS(=O)(=O)Nc1ccc2nc(-c3ccccc3)c(-c3ccccc3)nc2c1	> 20 µM (inactive)
COc1ccc(-c2cn3nc(-c4ccc(C)cc4)c(-c4ccc(C)cc4)nc3n2)c(OC)c1	9.5 µM
CCS(=O)(=O)Nc1ccc2nc(-c3ccccc3)c(-c3ccccc3)nc2c1	> 20 µM (inactive)
Clc1ccc(-c2cn3nc(-c4ccccc4)c(-c4ccccc4)nc3n2)c(Cl)c1	> 20 µM (inactive)
COc1ccc(-c2nc3nc(-c4ccc(C#N)cc4)cn3nc2-c2ccc(OC)cc2)cc1	2.4 µM

Compound	EC50
CC(Oc1ccccc1)C(=O)Nc1ccc2nc(-c3ccccc3)c(-c3ccccc3)nc2c1 (configuration not stated)	> 20 µM (inactive)
CC(C)(C)C(=O)Nc1ccc2nc(-c3ccccc3)c(-c3ccccc3)nc2c1	> 20 µM (inactive)
CCCCOC(=O)Nc1ccc2nc(-c3cccs3)c(-c3cccs3)nc2c1	> 20 µM (inactive)
CS(=O)(=O)c1ccc(-c2cn3nc(-c4ccc(F)cc4)c(-c4ccc(F)cc4)nc3n2)cc1	> 20 µM (inactive)
CCOC(=O)Nc1ccc2nc(-c3ccccc3)c(-c3ccccc3)nc2c1	> 20 µM (inactive)
COc1ccc(-c2nc3nc(-c4ccc(F)cc4)cn3nc2-c2ccc(OC)cc2)cc1	4 µM
Fc1ccc(-c2nc3nc(-c4cccc(F)c4)cn3nc2-c2ccc(F)cc2)cc1	8.6 µM
CC(C)CS(=O)(=O)Nc1ccc2nc(-c3ccccc3)c(-c3ccccc3)nc2c1	> 20 µM (inactive)
O=C(Nc1ccc2nc(-c3ccccc3)c(-c3ccccc3)nc2c1)C1CC1	> 20 µM (inactive)
CCCNC(=O)Nc1ccc2nc(-c3ccccc3)c(-c3ccccc3)nc2c1	> 20 µM (inactive)
Fc1ccc(-c2cn3nc(-c4ccccc4)c(-c4ccccc4)nc3n2)cc1	> 20 µM (inactive)
O=S(=O)(Nc1ccc2nc(-c3cccs3)c(-c3cccs3)nc2c1)C1CC1	> 20 µM (inactive)
COc1cccc(-c2cn3nc(-c4ccccc4)c(-c4ccccc4)nc3n2)c1	16.2 µM
COc1ccc(-c2cn3nc(-c4ccc(C)cc4)c(-c4ccc(C)cc4)nc3n2)cc1	5 µM
CS(=O)(=O)c1ccc(-c2cn3nc(-c4ccccc4)c(-c4ccccc4)nc3n2)cc1	11.6 µM
O=C(Nc1ccc2nc(-c3ccccc3)c(-c3ccccc3)nc2c1)NC1CCCC1	> 20 µM (inactive)
CC(C)OC(=O)Nc1ccc2nc(-c3ccccc3)c(-c3ccccc3)nc2c1	> 20 µM (inactive)
CC(C)NC(=O)Nc1ccc2nc(-c3ccccc3)c(-c3ccccc3)nc2c1	> 20 µM (inactive)
O=C(Nc1ccc2nc(-c3cccs3)c(-c3cccs3)nc2c1)NC1CCCC1	> 20 µM (inactive)
